Laboratory results as given in patent US11419806B2, “Prebiotic oral care methods using a saccharide” (Colgate-Palmolive Company, priority 2013, dated 2022).

What was measured:
Type in all cases: cell-based
Actinomyces naeslundii = test: Phenotype microarray metabolic activity; details: A naeslundii
Method: (§1) The extent of metabolic activity of the tested bacteria in the presence of the above-mentioned saccharides after 24 hours and 48 hours was investigated through a high throughput phenotype microarray system (PM) for microbial cells (Biolog Inc.). Each PM can contain up to 95 different biochemical compounds (e.g. saccharides) that may act as substrates for bacteria as well as one negative control, not containing the substrates. Microarray plates were used in which the different wells of each plate were pre-loaded (by the manufacturer, Biolog Inc.) with different saccharides to be tested. Each bacterial species was tested using a separate microarray plate. Thus, a single bacterial species was tested with a variety of saccharides on each particular plate. The microarrays are based on redox technology, using cell respiration as a universal reporter. Active cell respiration results in the reduction of a tetrazolium dye and in the formation of a strong color—for example, when using the tetrazolium dye “Biolog Redox Dye Mix D”, the color changes from transparent/colorless to purple when the dye is reduced. The observation of this color change indicates which of the substrates improve the metabolic activity and health of the cells.
(§2) Each bacterial species was collected from blood agar plates (incubated for 48 hours anaerobically at 37° C.) and transferred to an IF-0 Base inoculation fluid (Biolog Inc.), which is a nutritionally poor medium. The resulting cell suspension was adjusted to a transmittance of 42% (relative to the transmittance of the base inoculation fluid with no bacterial species present) at 492 nm using a BioRad SmartSpec 3000 Photometer (the adjustment being effected by adding either further inoculation fluid or further bacteria until the transmittance of 42% was achieved). A 1:5 dilution of this suspension was prepared by mixing 3 mL of the 42% transmittance cell suspension with 15 mL of an inoculation fluid (which inoculation fluid was formed by mixing 11.6 mL sterile water, 62.5 mL IF-0 base inoculation fluid and 0.9 mL of the tetrazolium dye “Biolog Redox Dye mix D”), resulting in a final cell density which was equal to 85% transmittance using a BioRad SmartSpec 3000 Photometer. For each of the saccharides tested, the microarray plate (obtained from the supplier (Biolog Inc.) with saccharides already present in the relevant wells in powder form) was directly inoculated with 100 μL/well of this 85% transmittance cell suspension.
(§3) All plates were incubated in an anaerobic atmosphere at 37° C. Color changes were measured spectrophotometrically at 492 nm (Thermo Scientific Multiskan Ascent) at 24 hrs and 48 hrs using the same plate at both time points. […] After 24 hrs and 48 hrs under continuous shaking in a Multiscan microplate reader, the optical density (OD) of the synthetic medium at 24 hours and 48 hours was measured (using the microplate reader) at a wavelength of 492 nm for each combination of bacterium/saccharide, and for each of their respective controls (i.e. which contained the particular bacterium but no saccharide).
(§4) The experiment was carried out three times for each combination of bacterium with saccharide, with each repeat being carried out on a different day (thus providing three biological replicas). The controls were also carried out three times, as above. The values shown are the average (mean) of the three single values obtained (as detailed above) for each combination of bacterium with saccharide, at 24 hrs and at 48 hrs.

Actinomyces viscosus = test: Phenotype microarray metabolic activity; details: A viscosus
Method: as §1, §2, §3, §4

[1] = system: Aggregatibacter actinomycetemcomitans; test: Phenotype microarray metabolic activity; details: A actinomycetemcomitans
Method: as §1, §2, §3, §4

Capnocytophaga sputigena = test: Phenotype microarray metabolic activity; details: C sputigena
Method: as §1, §2, §3, §4

Fusobacterium nucleatum = test: Phenotype microarray metabolic activity; details: F nucleatum
Method: as §1, §2, §3, §4

Porphyromonas gingivalis = test: Phenotype microarray metabolic activity; details: P gingivalis
Method: as §1, §2, §3, §4

Prevotella intermedia = test: Phenotype microarray metabolic activity; details: P intermedia
Method: as §1, §2, §3, §4

S sanguinis = test: Phenotype microarray metabolic activity
Method: as §1, §2, §3, §4

Streptococcus gordonii = test: Phenotype microarray metabolic activity; details: S gordonii
Method: as §1, §2, §3, §4

Streptococcus mitis = test: Phenotype microarray metabolic activity; details: S mitis
Method: as §1, §2, §3, §4

Streptococcus mutans = test: Phenotype microarray metabolic activity; details: S mutans
Method: as §1, §2, §3, §4

Streptococcus salivarius = test: Phenotype microarray metabolic activity; details: S salivarius
Method: as §1, §2, §3, §4

Streptococcus sobrinus = test: Phenotype microarray metabolic activity; details: S sobrinus
Method: as §1, §2, §3, §4

Tannerella forsythia = test: Phenotype microarray metabolic activity; details: T forsythia
Method: as §1, §2, §3, §4

Veillonella parvula = test: Phenotype microarray metabolic activity; details: V parvula
Method: as §1, §2, §3, §4

[2] = system: beneficial oral bacteria and pathogenic oral bacteria; test: Microarray screen, overall prebiotic assessment; details: 48 hrs
Method: Substrates that were able to increase the metabolic activity of at least one of the above beneficial bacteria while not or only minimally increasing the growth of the pathogenic bacteria are considered to be prebiotic substrates.
as §1, §2, §3, §4
This value was selected in order to exclude low-stimulating metabolites and avoid false positive results.

In the case of OC[C@H]1O[C@@](CO)(O[C@H]2O[C@H](CO)[C@@H](O)[C@H](O)[C@H]2O)[C@@H](O[C@H]2O[C@H](CO)[C@@H](O)[C@H](O)[C@H]2O)[C@@H]1O [D-Melezitose, (2R,3R,4S,5S,6R)-2-[[(2S,3S,4R,5R)-4-hydroxy-2,5-bis(hydroxymethyl)-3-[[(2R,3R,4S,5S,6R)-3,4,5-trihydroxy-6-(hydroxymethyl)-2-tetrahydropyranyl]oxy]-2-tetrahydrofuranyl]oxy]-6-(hydroxymethyl)tetrahydropyran-3,4,5-triol], the “metabolic activity: OD 492 nm divided by OD of control (control = 1)” value (“metabolic activity: OD 492 nm divided” below) (Actinomyces naeslundii; 24 hrs) is reported as 1.5398, the “metabolic activity: OD 492 nm divided” value (Actinomyces naeslundii; 48 hrs) is reported as 2.0357 and the “metabolic activity: OD 492 nm divided” value (Actinomyces viscosus; 24 hrs) is reported as 1.7502. For the same compound, the “metabolic activity: OD 492 nm divided” value (Actinomyces viscosus; 48 hrs) was 2.9576, the “metabolic activity: OD 492 nm divided” value ([1]; 24 hrs) was 0.8425 and the “metabolic activity: OD 492 nm divided” value ([1]; 48 hrs) was 0.7710. For the same compound, the “metabolic activity: OD 492 nm divided” value (Capnocytophaga sputigena; 24 hrs) was 0.5937, the “metabolic activity: OD 492 nm divided” value (Capnocytophaga sputigena; 48 hrs) was 0.9124 and the “metabolic activity: OD 492 nm divided” value (Fusobacterium nucleatum; 24 hrs) was 0.9719. For the same compound, the “metabolic activity: OD 492 nm divided” value (Fusobacterium nucleatum; 48 hrs) was 0.8307, the “metabolic activity: OD 492 nm divided” value (Porphyromonas gingivalis; 24 hrs) was 0.7783 and the “metabolic activity: OD 492 nm divided” value (Porphyromonas gingivalis; 48 hrs) was 0.7811. For the same compound, the “metabolic activity: OD 492 nm divided” value (Prevotella intermedia; 24 hrs) was 1.0189, the “metabolic activity: OD 492 nm divided” value (Prevotella intermedia; 48 hrs) was 0.9864 and the “metabolic activity: OD 492 nm divided” value (S sanguinis; 24 hrs) was 1.0227. The “metabolic activity: OD 492 nm divided” value (S sanguinis; 48 hrs) was 1.0532, the “metabolic activity: OD 492 nm divided” value (Streptococcus gordonii; 24 hrs) was 1.0421 and the “metabolic activity: OD 492 nm divided” value (Streptococcus gordonii; 48 hrs) was 0.9733. For the same compound, the “metabolic activity: OD 492 nm divided” value (Streptococcus mitis; 24 hrs) was 1.1736, the “metabolic activity: OD 492 nm divided” value (Streptococcus mitis; 48 hrs) was 1.0570 and the “metabolic activity: OD 492 nm divided” value (Streptococcus mutans; 24 hrs) was 1.0420. For the same compound, the “metabolic activity: OD 492 nm divided” value (Streptococcus mutans; 48 hrs) was 0.9402, the “metabolic activity: OD 492 nm divided” value (Streptococcus salivarius; 24 hrs) was 1.0195 and the “metabolic activity: OD 492 nm divided” value (Streptococcus salivarius; 48 hrs) was 0.9869. For the same compound, the “metabolic activity: OD 492 nm divided” value (Streptococcus sobrinus; 24 hrs) was 1.1016, the “metabolic activity: OD 492 nm divided” value (Streptococcus sobrinus; 48 hrs) was 1.0504 and the “metabolic activity: OD 492 nm divided” value (Tannerella forsythia; 24 hrs) was 1.0374. The “metabolic activity: OD 492 nm divided” value (Tannerella forsythia; 48 hrs) was 0.9912, the “metabolic activity: OD 492 nm divided” value (Veillonella parvula; 24 hrs) was 0.9056 and the “metabolic activity: OD 492 nm divided” value (Veillonella parvula; 48 hrs) was 0.7447. The “prebiotic effects (metabolic activity, threshold value 2)” value [2] was “exhibited prebiotic effects”.
